# Reference: patent US10899738B2 (THE REGENTS OF THE UNIVERSITY OF MICHIGAN, priority 2016, dated 2021)
# Read-outs that look alike come from different tables or passages of the source.
# Key:
# menin protein = menin protein (Homo sapiens (Human), UniProt O00255); assay: biochemical; format: binding; conditions: FP competitive binding, menin protein 4 nM, FAM-MM2 probe 2 nM; for IC50: read-out: Menin Binding Affinity IC50
# Summary of the method: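 Competitive fluorescence polarization assay using FAM-labelled MLL1 peptide probe FAM-MM2 (2 nM final) preincubated with menin (4 nM final) in PBS with 0.02% bovine γ-globulin, 4% DMSO and 0.01% Triton X-100. Compounds were added and incubated 30 min at room temperature. IC50 came from nonlinear regression of competition curves, with Ki also derived.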
# [1] = Cell growth inhibition, CellTiter-Glo Luminescent Cell Viability Assay; format: cell-based
# Description: Cell growth inhibitory activity of representative menin inhibitors was determined using CellTiter-Glo® Luminescent Cell Viability Assay. Cells were seeded in 384-well white opaque cell culture plates at a density of 2,000 cells/well with serially diluted compounds and incubated at 37° C. in an atmosphere of 95% air and 5% CO2 for 4 days. Cell viability was determined using the CellTiter-Glo® Luminescent Cell Viability Assay Kit (Promega, Madison, Wis.) according to the manufacture's instruction. Briefly, a volume of CellTiter-Glo® Reagent equal to the volume of cell culture medium was added to each well, and then the plates were incubated at room temperature for 10-20 minutes. The luminescent signal was measured using a Tecan Infinite M1000 multimode microplate reader (Tecan, Morrisville, N.C.). The half maximal inhibitory concentration (IC50) was calculated using the GraphPad Prism 5 software (GraphPad Software, La Jolla, Calif.).
# [2] = MOLM-13, 96 h, MOLM13 cells, 4 days, CellTiter-Glo, read-out: Cell Growth Inhibition IC50 (μM) MOLM13
# [3] = MV4-11, 96 h, MV4, 11 cells, 4 days, CellTiter-Glo, read-out: Cell Growth Inhibition IC50 (μM) MV4, 11
# [4] = MOLM-13, 96 h, read-out: Cell Growth Inhibition IC50 (μM) MOLM13, MOLM13 cells, 4 days, CellTiter-Glo
# [5] = MV4-11, 96 h, read-out: Cell Growth Inhibition IC50 (μM) MV4, 11, MV4, 11 cells, 4 days, CellTiter-Glo
# menin protein, sequence (O00255 whole entry): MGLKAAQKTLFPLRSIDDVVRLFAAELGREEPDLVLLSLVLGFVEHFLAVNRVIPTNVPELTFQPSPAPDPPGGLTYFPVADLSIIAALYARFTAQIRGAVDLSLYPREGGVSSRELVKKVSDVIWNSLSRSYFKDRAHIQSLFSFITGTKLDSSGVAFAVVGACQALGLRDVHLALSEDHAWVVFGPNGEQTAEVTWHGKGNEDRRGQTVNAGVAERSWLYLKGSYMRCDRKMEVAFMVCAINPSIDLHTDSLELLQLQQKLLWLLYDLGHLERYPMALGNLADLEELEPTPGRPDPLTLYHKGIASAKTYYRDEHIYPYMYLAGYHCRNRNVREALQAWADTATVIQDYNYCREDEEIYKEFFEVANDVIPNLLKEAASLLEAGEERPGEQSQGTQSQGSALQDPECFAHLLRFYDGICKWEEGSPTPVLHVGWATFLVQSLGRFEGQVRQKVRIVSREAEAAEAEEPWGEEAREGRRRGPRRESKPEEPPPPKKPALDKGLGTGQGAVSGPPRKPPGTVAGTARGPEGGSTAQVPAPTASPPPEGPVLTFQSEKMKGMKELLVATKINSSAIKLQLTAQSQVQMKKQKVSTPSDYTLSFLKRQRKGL
SMILES,IC50 (menin protein),"IC50 [1, 4]","IC50 [1, 5]",other results
"CC(C)N1Cc2ccccc2C(C2CCCC2)(C2CCN(CC3CN(c4ccc(S(=O)(=O)c5ccncc5)cc4)C3)CC2)C1 (stereo not shown) [compound 48, 4-cyclopentyl-2-isopropyl-4-(1-((1-(4-(pyridin-4-ylsulfonyl)phenyl)azetidin-3-yl)methyl)piperidin-4-yl)-1,2,3,4-tetrahydroisoquinoline]",7 nM,–,–,"IC50 [1, 2]: 2.8 µM; IC50 [1, 3]: 0.908 µM"
"CCN1Cc2ccccc2C(C2CCCC2)(C2CCN(CC3CN(c4ccc(S(=O)(=O)c5ccnc(C(F)(F)F)c5)cc4)C3)CC2)C1 (stereo not shown) [compound 157, 4-cyclopentyl-2-ethyl-4-(1-((1-(4-((2-(trifluoromethyl)pyridin-4-yl)sulfonyl)phenyl)azetidin-3-yl)methyl)piperidin-4-yl)-1,2,3,4-tetrahydroisoquinoline]",16 nM,–,–,"IC50 [1, 2]: 4.4 µM; IC50 [1, 3]: 1.8 µM"
"CC(=O)N[C@H]1CCC[C@@H]1C(C#N)(c1ccccc1)C1CCN(CC2CN(c3ccc(S(=O)(=O)c4ccncc4)cc3)C2)CC1 (mixture of isomers) [compound 263, rac-N-((1S,2R)-2-(cyano(phenyl)(1-((1-(4-(pyridin-4-ylsulfonyl)phenyl)azetidin-3-yl)methyl)piperidin-4-yl)methyl)cyclopentyl) acetamide]",10 nM,1.4 µM,0.254 µM,–
"CNC(=O)O[C@H]1CCC[C@@H]1C(Cn1ccnc1)(c1ccccc1)C1CCN(CC2CN(c3ccc(Cl)cc3)C2)CC1 (mixture of isomers) [compound 407, rac-(1S,2R)-2-(1-(1-((1-(4-chlorophenyl)azetidin-3-yl)methyl)piperidin-4-yl)-2-(1H-imidazol-1-yl)-1-phenylethyl)cyclopentyl methylcarbamate]",5 nM,0.69 ± 0.089 µM,0.41 ± 0.28 µM,–
"CC(=O)N[C@H]1CCC[C@@H]1C(C#N)(c1ccccc1)C1CCN(CC2CN(c3ccc(S(=O)(=O)C4CC4)cc3)C2)CC1 (mixture of isomers) [compound 281, rac-N-((1S,2R)-2-(cyano(1-((1-(4-(cyclopropylsulfonyl)phenyl)azetidin-3-yl)methyl)piperidin-4-yl)(phenyl)methyl)cyclopentyl) acetamide]",29 nM,2.35 µM,0.55 µM,–
"CNC(=O)N[C@H]1CCC[C@@H]1C1(C2CCN(CC3CN(c4ccc(S(=O)(=O)C5CC5)cc4)C3)CC2)CN(C)Cc2ccccc21 (mixture of isomers) [compound 283, rac-1-((1S,2R)-2-(4-(1-((1-(4-(cyclopropylsulfonyl)phenyl)azetidin-3-yl)methyl)piperidin-4-yl)-2-methyl-1,2,3,4-tetrahydroisoquinolin-4-yl)cyclopentyl)-3-methylurea]",10 nM,0.53 µM,0.21 µM,–
"CN(C)C(=O)N[C@H]1CCC[C@@H]1C(Cn1ccnc1)(c1ccccc1)C1CCN(CC2CN(c3ccc(S(=O)(=O)c4cnn(C)c4)cc3)C2)CC1 (mixture of isomers) [compound 376, rac-3-((1S,2R)-2-(2-(1H-imidazol-1-yl)-1-(1-((1-(4-((1-methyl-1H-pyrazol-4-yl)sulfonyl)phenyl)azetidin-3-yl)methyl)piperidin-4-yl)-1-phenylethyl)cyclopentyl)-1,1-dimethylurea]",6 nM,> 10 µM,10.5 ± 2.08 µM,–
"COC(=O)N[C@H]1CCC[C@@H]1C(C#N)(c1ccccc1)C1CCN(CC2CN(c3ccc(S(=O)(=O)c4ccc(C(=O)O)cc4)cc3)C2)CC1 (mixture of isomers) [compound 351, rac-4-((4-(3-((4-(cyano((1R,2S)-2-((methoxycarbonyl)amino)cyclopentyl)(phenyl)methyl)piperidin-1-yl)methyl)azetidin-1-yl)phenyl)sulfonyl)benzoic acid]",15 nM,16.1 µM,3.02 µM,–
"CN(C)C(=O)N[C@H]1CCC[C@@H]1C(C#N)(c1ccccc1)C1CCN(CC2CN(c3ccc(S(=O)(=O)c4ccncc4)cc3)C2)CC1 (mixture of isomers) [compound 275, rac-3-((1S,2R)-2-(cyano(phenyl)(1-((1-(4-(pyridin-4-ylsulfonyl)phenyl)azetidin-3-yl)methyl)piperidin-4-yl)methyl)cyclopentyl)-1,1-dimethylurea]",12 nM,0.41 µM,0.45 µM,–
"COC(=O)N[C@H]1CCC[C@@H]1C(C#N)(c1ccccc1)C1CCN(CC2CN(c3ccc(S(=O)(=O)C4CC4)cc3)C2)CC1 (mixture of isomers) [compound 319, rac-methyl ((1S,2R)-2-(cyano(1-((1-(4-(cyclopropylsulfonyl)phenyl)azetidin-3-yl)methyl)piperidin-4-yl)(phenyl)methyl)cyclopentyl)carbamate]",31 nM,2.77 µM,0.33 µM,–
"COC(=O)N[C@H]1CCC[C@@H]1C(C#N)(c1ccccc1)C1CCN(CC2CN(c3ccc(S(=O)(=O)C4CC5CCC4C5)cc3)C2)CC1 (mixture of isomers) [compound 396, methyl rac-((1S,2R)-2-((1-((1-(4-(bicyclo[2.2.1]heptan-2-ylsulfonyl)phenyl)azetidin-3-yl)methyl)piperidin-4-yl)(cyano)(phenyl)methyl)cyclopentyl)carbamate]",12 nM,1.46 µM,0.46 µM,–
"CCS(=O)(=O)c1ccc(N2CC(CN3CCC(C4(C5CCCC5)NCCc5ccccc54)CC3)C2)cc1 (stereo not shown) [compound 133, 1-cyclopentyl-1-(1-((1-(4-(ethylsulfonyl)phenyl)azetidin-3-yl)methyl)piperidin-4-yl)-1,2,3,4-tetrahydroisoquinoline]",30 nM,–,–,"IC50 [1, 2]: 2.9 ± 0.8 µM; IC50 [1, 3]: 1.7 ± 1 µM"
"COC(=O)N[C@H]1CCC[C@@H]1C(C#N)(c1ccccc1)C1CCN(CC2CN(c3ccc(S(=O)(=O)C(F)(F)F)cc3)C2)CC1 (mixture of isomers) [compound 393, methyl rac-((1S,2R)-2-(cyano(phenyl)(1-((1-(4-((trifluoromethyl)sulfonyl)phenyl)azetidin-3-yl)methyl)piperidin-4-yl)methyl)cyclopentyl) carbamate]",–,0.88 µM,0.25 µM,–
"N#Cc1ccc(OCCCN2CCC(C3(C4CCCC4)NCCc4ccccc43)CC2)cc1 (stereo not shown) [compound 27, 4-(3-(4-(1-cyclopentyl-1,2,3,4-tetrahydroisoquinolin-1-yl)piperidin-1-yl)propoxy)benzonitrile]",–,–,–,"IC50 ([1]; MOLM-13, 96 h, read-out: Cell Growth Inhibition IC50 (μM) MOLM13): 3.6 µM; IC50 ([1]; MV4-11, 96 h, read-out: Cell Growth Inhibition IC50 (μM) MV4, 11): 0.9 µM"
"COC(=O)N[C@H]1CCC[C@@H]1[C@](C#N)(c1ccccc1)C1CCN(CC2CN(c3ccc(S(=O)(=O)C(F)(F)F)cc3)C2)CC1 [Cpd. No. 403, methyl ((1S,2R)-2-((S)-cyano(phenyl)(1-((1-(4-((trifluoromethyl)sulfonyl)phenyl)azetidin-3-yl)methyl)piperidin-4-yl)methyl)cyclopentyl)carbamate]",–,1.3 µM,0.19 µM,–
"COC(=O)N[C@H]1CCC[C@@H]1C(C#N)(c1ccccc1)C1CCN(CC2CN(c3ccc(C#N)cc3)C2)CC1 (mixture of isomers) [compound 400, methyl rac-((1S,2R)-2-(cyano(1-((1-(4-cyanophenyl)azetidin-3-yl)methyl)piperidin-4-yl)(phenyl)methyl)cyclopentyl) carbamate]",–,–,–,"IC50 [1, 2]: 6.11 µM; IC50 [1, 3]: 0.83 µM"
"N#Cc1ccc(OCCCN2CC(C3(C4CCCC4)NCCc4ccccc43)C2)cc1 (stereo not shown) [compound 60, 4-(3-(3-(1-cyclopentyl-1,2,3,4-tetrahydroisoquinolin-1-yl)azetidin-1-yl)propoxy)benzonitrile]",–,–,–,Menin Binding Affinity IC50 (μM) (menin protein): No inhibition
"CN([C@@H]1CCC[C@H]1C(C#N)(c1ccccc1)C1CCN(CC2CN(c3ccc(S(=O)(=O)C4CC4)cc3)C2)CC1)S(C)(=O)=O (mixture of isomers) [compound 274, rac-N-((1R,2S)-2-(cyano(1-((1-(4-(cyclopropylsulfonyl)phenyl)azetidin-3-yl)methyl)piperidin-4-yl)(phenyl)methyl)cyclopentyl)-N-methanesulfonamide]",19200 nM,–,–,–
"CNC(=O)O[C@H]1CCC[C@@H]1C(C#N)(c1ccccc1)C1CCN(CC2CN(c3ccc(S(=O)(=O)C4CC4)cc3)C2)CC1 (mixture of isomers) [compound 226, rac-(1S,2R)-2-(cyano(1-((1-(4-(cyclopropylsulfonyl)phenyl)azetidin-3-yl)methyl)piperidin-4-yl)(phenyl)methyl)cyclopentyl methylcarbamate]",14 nM,–,–,–
"CN1Cc2cccc(Cl)c2C(C2CCCC2)(C2CCN(CCCOc3ccc(C#N)cc3)CC2)C1 (stereo not shown) [compound 34, 4-(3-(4-(5-chloro-4-cyclopentyl-2-methyl-1,2,3,4-tetrahydroisoquinolin-4-yl)piperidin-1-yl)propoxy)benzonitrile]",1800 nM,–,–,–
"CCS(=O)(=O)c1ccc(N2CC(C(=O)N3CCC(C4(C5CCCC5)NCCc5c(F)cccc54)CC3)C2)cc1 (stereo not shown) [compound 116, (4-(1-cyclopentyl-5-fluoro-1,2,3,4-tetrahydroisoquinolin-1-yl)piperidin-1-yl)(1-(4-(ethylsulfonyl)phenyl)azetidin-3-yl)methanone]",6000 nM,–,–,–
